Measurements published in patent publication US10869846B2, “N-acetylcysteine amide (NAC amide) in the treatment of diseases and conditions associated with oxidative stress” (SENTIENT LIFESCIENCES, INC., priority 2005, dated 2020).
“And” between values parts separate entries of the source, which are not always exact repeats. Identical values can stand only once. Marks after values point to notes of the source that are not given here.

Legend:
[1] = test system: PC12 cells; test: GSH measurement in cells (NPM/HPLC); type: cell-based
Protocol: Cells were seeded at a density of 80,000 cells/cm^2 on poly-D-lysine coated (0.05 mg/ml) 75 cm^2 flasks (5 ml/flask) for GSH measurement. […] After the incubation period, cells were removed from the cultures and homogenized in serine borate buffer (100 mM Tris-HCl, 10 mM boric acid, 5 mM L-serine, 1 mM DETAPAC, pH 7.4). Twenty (20) μl of the diluted cell homogenate were added to 230 μl of serine borate buffer and 750 μl of NPM (1 mM in acetonitrile). The resulting solutions were incubated at room temperature for 5 min. The reaction was stopped by the addition of 5 μl of 2N HCl. The samples were then filtered through a 0.2 μm Acrodisc filter and injected onto the HPLC system.
[…] Values represent means.+−.SD. Statistically different values of *P<0.05 were determined, compared to control. **P<0.001 compared to glutamate-treated group. ***P<0.05 compared to glutamate-treated group.

[2] = test system: Sprague Dawley rats; test: GSH and CYS levels in tissues after 6Gy total-body x-ray radiation; type: in vivo, rat; conditions: for CYS level / GSH level / CYS Mean / GSH Mean: 6Gy total-body x-ray, 500 mg/kg orally; for CYS level / GSH level: individual animals; for CYS Mean / GSH Mean: n = 3
Protocol: Animal studies: The irradiation of rats was performed at the Radiation Oncology Department of the Phelps County Regional Medical Center in Rolla, Mo., using a 16 MeV beam generated by a Varian linear accelerator, model Clinac 1800, and in accordance with the standards of humane laboratory animal protocols. A 20×20 or 25×25 cm field was used and output factors were checked once a week. Twelve animals were divided into 4 groups each containing 3 animals (Control, XRT, NAC amide+XRT and NAC+XRT). The radiation (XRT) control received whole body irradiation by 6 Gy of 16 MeV electrons. The NAC amide+XRT group received 500 mg/kg/day NAC amide immediately before irradiation and for three days after until sacrifice. The rats were anesthetized and heparinized blood was collected via cardiopuncture. Following sacrifice, liver, lung, brain and spleen were removed and stored at −70° C. until homogenization.
All experiments were performed using adult Albino SASCO Sprague Dawley female rats weighing about 250 g, which were purchased from Charles River Laboratories Inc. (Portage, Mich.). Twelve rats were shipped in paper crates (4 in each crate). Rats were delivered with a certificate including serological, bacteriological, pathological parasitological information. They were divided into 4 cages (3 rats in each cage) and kept in a temperature controlled (20° C.) room equipped to maintain a 12 h light-dark cycle. Standard rat chow (Purina rat chow) and tap water were supplied in individual glass bottle and given ad libitum. Water was changed daily. Weights of the animal were taken before giving the NAC amide treatment solution and amount of food eaten and water consumed was not measured because NAC amide was given orally but not in the drinking water or food.
NAC amide was provided by Novetide Ltd (Haifa Bay, Israel) including certificate of analysis and MSDS (lot #40233-64). NAC amide feeding solution was prepared freshly each day right before the administration by weighing 1.25 g NAC amide solid sample (Type HR-120 electronic balance, A&D Company limited, Japan. S/N: 12202464) and adding into 10 ml PBS solution and put on ice. One ml of this solution was administrated (gavaged) per rat orally by using animal feeding biomedical needles and 3 ml BD Luer-Lok Tip syringes. Rats received one-dose total-body 6 Gy/16 MeV x-ray radiation and 3 rats in each group were held in a covered bucket and received radiation at the same time. Each day at the same time, 500 mg/Kg body weight of NAC amide was administrated to the animals.
For GSH and CYS levels, 250 μL tissue homogenate was used to react with 750 μL NPM solution, therefore, the total volume was 1000 μL.
Oxidative Stress Parameters in Animals: After the blood samples were drawn, the animals were perfused by a cold antioxidant buffer first and then liver, brain and kidney samples were collected aseptically, rinsed in ice-cold saline and placed in petri dishes maintained on ice. The tissue samples kept at −70° C. for the GSH, GSSG, and MDA determinations were made.
Glutathione (GSH) and Glutathione Disulfide (GSSG) Determination: Cells or tissue samples were homogenized on ice and derivatized with N-(1-pyrenyl)-maleimide (NPM). The derivatized samples were injected onto a 3 μm C18 column (Column Engineering) in a reverse phase HPLC system with a mobile phase of 35% water, 65% acetonitrile containing 1 mL/L of acetic acid and o-phosphoric acid (R. Winters, et al., Anal. Biochem., 227:14-21 (1995) and H. H. Draper et al., Free Rad. Biol. Med., 15:353-363 (1993)). Malondialdehyde (MDA) determinations were made as described in J. Gutteridge, Anal. Biochem., 69: 518-526 (1975).

[3] = test system: Sprague Dawley rats; test: Catalase activities in tissues after 6Gy total-body x-ray radiation; type: in vivo, rat; conditions: KIDNEY, 500 mg/kg orally; for Catalase level: individual animals; for Catalase Mean: n = 3
[4] = BRAIN, listed as AD4, 500 mg/kg
[5] = KIDNEY, listed as AD4, 500 mg/kg
[6] = LIVER, listed as AD4, 500 mg/kg
[7] = PLASMA, listed as AD4, 500 mg/kg

Question: What does the source list for N-acetylcysteine amide [NAC amide]?
Answer: increase of PC12 cell GSH level compared to the control group ([1]; 750 μM, 24 hour treatment): two fold; GSH Levels ([1]; GLU (10 mM) + BSO (0.2 mM) + NAC amide (750 μM)): 30 ± 4.3 nM/mg protein; GSH Levels ([1]; GLU (10 mM) + NAC amide (750 μM)): 88 ± 11.0 nM/mg protein; GSH Levels ([1]; NAC amide (750 μM) alone): 112 ± 17.8 nM/mg protein; cells' GSH levels maintained in GSH synthesis-arrested cells ([1]; glutamate + BSO (0.2 mM)): 56%; CYS level [2, 4]: 4.47 nmol/mg and 4.32 nmol/mg and 4.26 nmol/mg; GSH level [2, 4]: 7.93 nmol/mg and 7.84 nmol/mg and 6.98 nmol/mg; CYS Mean ([2]; BRAIN): 4.4 nmol/mg; GSH Mean ([2]; BRAIN): 7.6** nmol/mg; CYS level [2, 5]: 16.91 nmol/mg and 11.09 nmol/mg and 10.81 nmol/mg; GSH level [2, 5]: 4.39 nmol/mg and 6.22 nmol/mg and 5.02 nmol/mg; CYS Mean ([2]; KIDNEY): 12.9** nmol/mg; GSH Mean ([2]; KIDNEY): 5.2 nmol/mg; CYS level [2, 6]: 1.51 nmol/mg and 1.53 nmol/mg (2×); GSH level [2, 6]: 17.45 nmol/mg and 16.73 nmol/mg and 17.50 nmol/mg; CYS Mean ([2]; LIVER): 1.5 nmol/mg; GSH Mean ([2]; LIVER): 17.2** nmol/mg; CYS level ([2]; LUNG, listed as AD4, 500 mg/kg): 1.43 nmol/mg and 1.61 nmol/mg and 0.91 nmol/mg; GSH level ([2]; LUNG, listed as AD4, 500 mg/kg): 5.12 nmol/mg and 5.27 nmol/mg and 6.28 nmol/mg; CYS Mean ([2]; LUNG): 1.3 nmol/mg; GSH Mean ([2]; LUNG): 5.6 nmol/mg; CYS level [2, 7]: 16.00 nmol/mg and 15.45 nmol/mg and 15.40 nmol/mg; GSH level [2, 7]: 7.10 nmol/mg and 7.44 nmol/mg and 7.94 nmol/mg; CYS Mean ([2]; PLASMA): 15.6** nmol/mg; GSH Mean ([2]; PLASMA): 7.6** nmol/mg; thiol levels in plasma and liver ([2]; after radiation exposure): significantly increases; Catalase level ([3]; listed as AD4, 500 mg/kg): 3.89 mU/mg and 3.46 mU/mg and 4.56 mU/mg; Catalase Mean [3]: 3.97** mU/mg

Question: For `CC(=O)N[C@@H](CS)C(=O)O` [NAC, N-acetylcysteine], which CYS level ([2]; BRAIN, 500 mg/kg) is on record?
Answer: The CYS level was 4.16 nmol/mg and 3.76 nmol/mg and 4.47 nmol/mg.

Question: And the GSH level ([2]; BRAIN, 500 mg/kg)?
Answer: Its GSH level is 7.32 nmol/mg and 6.74 nmol/mg and 7.15 nmol/mg.

Question: What about the “CYS Mean” value ([2]; BRAIN) of the same compound?
Answer: Its value is 4.1 nmol/mg.

Question: And the “GSH Mean” value ([2]; BRAIN)?
Answer: The value was 7.0 nmol/mg.

Question: And the CYS level ([2]; KIDNEY, 500 mg/kg)?
Answer: The CYS level was 12.23 nmol/mg and 12.16 nmol/mg and 11.03 nmol/mg.

Question: What about the GSH level ([2]; KIDNEY, 500 mg/kg) of the same compound?
Answer: Its GSH level is 5.95 nmol/mg and 6.44 nmol/mg and 6.33 nmol/mg.

Question: What about the “CYS Mean” value ([2]; KIDNEY) of the same compound?
Answer: The value was 11.8** nmol/mg.

Question: What about the “GSH Mean” value ([2]; KIDNEY) of the same compound?
Answer: The value was 6.2** nmol/mg.

Question: And the CYS level ([2]; LIVER, 500 mg/kg)?
Answer: Its CYS level is 1.25 nmol/mg and 1.61 nmol/mg and 1.51 nmol/mg.

Question: And the GSH level ([2]; LIVER, 500 mg/kg)?
Answer: The GSH level was 15.23 nmol/mg and 16.80 nmol/mg and 16.93 nmol/mg.

Question: And the “CYS Mean” value ([2]; LIVER)?
Answer: Its value is 1.5 nmol/mg.

Question: And the “GSH Mean” value ([2]; LIVER)?
Answer: Its value is 16.3 nmol/mg.

Question: What about the CYS level ([2]; LUNG, 500 mg/kg) of the same compound?
Answer: The CYS level was 1.16 nmol/mg and 2.64 nmol/mg and 2.43 nmol/mg.

Question: What about the GSH level ([2]; LUNG, 500 mg/kg) of the same compound?
Answer: The GSH level was 5.19 nmol/mg and 7.24 nmol/mg and 4.95 nmol/mg.

Question: What about the “CYS Mean” value ([2]; LUNG) of the same compound?
Answer: Its value is 1.9 nmol/mg.

Question: And the “GSH Mean” value ([2]; LUNG)?
Answer: Its value is 5.8 nmol/mg.

Question: And the CYS level ([2]; PLASMA, 500 mg/kg)?
Answer: The CYS level was 14.64 nmol/mg and 13.75 nmol/mg and 14.36 nmol/mg.

Question: What about the GSH level ([2]; PLASMA, 500 mg/kg) of the same compound?
Answer: The GSH level was 7.08 nmol/mg and 6.18 nmol/mg and 6.27 nmol/mg.

Question: What about the “CYS Mean” value ([2]; PLASMA) of the same compound?
Answer: Its value is 14.2*** nmol/mg.

Question: What about the “GSH Mean” value ([2]; PLASMA) of the same compound?
Answer: The value was 6.5**/*** nmol/mg.

Question: And the “GSH levels in tissues” value ([2]; after radiation exposure)?
Answer: Its value is “does not increase”.

Question: And the Catalase level ([3]; 500 mg/kg)?
Answer: The Catalase level was 5.85 mU/mg and 3.02 mU/mg and 4.36 mU/mg.

Question: And the “Catalase Mean” value [3]?
Answer: Its value is 4.41 mU/mg.
